Legend:
Format in all cases: cell-based, human
[1] = test system: IFN-γ in PBMC culture from serum IgE+ allergic asthmatics; assay: IFN-γ release by PBMC cultures infected with C. pneumoniae MOI 0.1 (Example 3); details: for IFN-γ level, mean % change: p=NS
Procedure: (§1) Peripheral blood (15 mL total) was obtained from patients and controls in ethylenediaminotetraacetic (EDTA) tubes. PBMC were isolated from whole blood on Ficoll-Paque (GE Healthcare, Sweden) and then washed in RPMI 1640 with 10% fetal bovine serum (FBS), and resuspended in complete RPMI 1640 (c-RPMI). C-RPMI contained RPMI-1640 Medium HEPES Modification supplemented by L-glutamine 5 mM and 10% FBS. Cells were counted and cell viability evaluated with trypan blue dye using a hemocytometer. PBMC (1.5×10^6/mL) were cultured in duplicate in 24 flat bottom well plates (1 ml/well) for up to 12 days in absolute humidification and 5% CO2. Cell viability at 0, 48 and 240 hours was >95%. Following a 2 h incubation to allow adherance PBMC cultures were infected or stimulated in the presence or absence of doxycycline. Doxycycline was reconstituted in a 1× sterile Dulbecco's Phosphate Buffered Saline (PBS).
(§2) PBMC were infected by adding purified EB at a multiplicity of infection (MOI) of 0.01-5 for 1 hour, followed by further incubation in the presence or absence of doxycycline, at 0.01, 0.1, 1.0 μg/mL, for 2 and 10 days p.i. at 37.0° C. in complete medium in a humidified 5% CO2 atmosphere. The time points 2 d (for cytokines) and 10 d p.i. […] Adherent cells were stained with monoclonal genus specific antibodies to confirm and quantify infection with C. pneumoniae at 72 h post infection. Identical volumes of inactivated C. pneumoniae were added in some experiments. C. pneumoniae was inactivated by incubation in a 56° C. water bath for 30 minutes. […]
(§3) In order to characterize the contribution of different T lymphocyte subpopulations to in vitro IgE production, cytokine concentration in infected and uninfected PBMC cultures were analyzed and determined. […]
(§4) To determine the effect of doxycycline on cytokine release by PBMC, doxycycline (0.01-1.0 ng/ml) was added to culture following infection with C. pneumoniae (MOI=0.1). […] In FIG. 8, the data is expressed as a percent control (PBMC day 10 p.i.), 100% is the mean highest response to Cpn; *P<0.05 for doxycycline treated cultures versus no doxycycline.

[2] = test system: IL-4 in PBMC culture from serum IgE+ allergic asthmatics; assay: IL-4 release by PBMC cultures infected with C. pneumoniae MOI 0.1 (Example 3)
Procedure: as §1, §2, §3, §4

[3] = test system: PBMC from allergic asthmatics infected with C. pneumoniae; assay: In vitro IgE release by PBMC cultures infected with C. pneumoniae MOI 0.1, day 10 (Example 3)
Procedure: as §1, §2
Doxycycline at a concentration of 1 μg/ml was added to PBMC cultures after one hour incubation with C. pneumoniae MOI of 0.1. […] In FIG. 5, the data is expressed as percent control (PBMC day 10 p.i.); the mean change was 48% decrease; p=0.043. In FIG. 6, the data is expressed as mean IgE±SD (ng/ml) in cultures with the following conditions: uninfected cells (Naïve); Cpn MOI=0.1; Cpn MOI=0.1 and doxycycline […]; Cpn MOI of 1.0 and heat inactivated Cpn.

In the case of `C[C@H]1c2cccc(O)c2C(=O)C2=C(O)[C@]3(O)C(=O)C(C(N)=O)=C(O)[C@@H](N(C)C)[C@@H]3[C@@H](O)[C@@H]21` [doxycycline], the “IFN-γ level, mean % decrease” value ([1]; doxycycline 1 ng/ml, day 2 (48 h), p=0.043) is reported as 43±27%, the “IFN-γ level, mean % change” value ([1]; doxycycline 0.01 μg/ml) is reported as 5%±11 and the “IFN-γ level, mean % change” value ([1]; doxycycline 0.1 μg/ml) is reported as −1%±18. For the same compound, the “IL-4 level, mean % decrease” value ([2]; doxycycline 1 ng/ml, day 2 (48 h), p=0.018) was 30±14%, the “IL-4 level, mean % change” value ([2]; doxycycline 0.01 μg/ml, p=0.018) was −45±33% and the “IL-4 level, mean % change” value ([2]; doxycycline 0.1 μg/ml, p<0.05) was −60±13%. For the same compound, the “mean change of IgE response, decrease (FIG. 5, percent control)” value ([3]; FIG. 5, individual subjects n=5, PBMC day 10 p.i., Cpn MOI=0.1, p=0.043) was 48%, the “suppression of IgE responses (average)” value ([3]; doxycycline 1 μg/ml added after 1 h incubation with C. pneumoniae MOI 0.1, day 10, p=0.043) was 42% and the “IgE in PBMC culture” value ([3]; doxycycline 1 μg/ml, C. pneumoniae MOI 0.1, day 10, versus 5.9±6.0 ng/ml without doxycycline) was 3.4 ± 3.9 ng/mL.
